The source of these data is US4789681A, “Cytoprotective guanidine derivatives useful in ischemic diseases” (Italfarmaco S.p.A., priority 1985, dated 1988).

Structures are written as SMILES.

The test system of one assay is rat (cerebral ischemia). Description: In vivo activity in the rat: cerebral ischemia, EEG recovery. As to conditions: 3 mg/kg i.v., 10' before test. The procedure:
The model described by Kramer (Kramer W., Tuynmann J. A.; Brain Research 6, 686 (1967)) has been used.
Two electrodes for the bipolar recording of EEG (occipito-cervical and cerebellar area) were applied to rats, anaesthetized with N2 O (70%) and O2 (30%), after i.v. tubocurarine treatment. Ischemia was induced by increasing the intracranial pressure in cisterna magna with artificial C.S.F. and for the duration of 1 minute. EEG was recorded 3' before ischemia, during the first 6 minutes of the recirculation and up to 30' after ischemia. The time for a complete EEG recovering was measured.
The compounds were administered i.v. 10' before test.

Another assay deals with rat (cardiac ischemia). Description: In vivo activity in the rat: cardiac ischemia and reperfusion by ligation of the left coronary artery. As to conditions: iv, 3 mg/kg, 10' to 30' before ligation.

From the text for rat (cardiac ischemia): It has been used a cardiac ischemia and reperfusion model, on the anaesthetized rat, by ligation of the left coronary artery as described by C. […] In said model, after the ischemic state induced by the coronary ligation, the reperfusion of the cardiac tissue follows the release of the ligation itself. In said situation tachycardias, extrasystoles ventricular fibrillations are observed, followed, in most cases, by the animal's death.
This applies in both situation: hypoxia and reperfusion.

The compound `COC(=O)[C@H](N)c1ccc(NC2=NCCN2)cc1` (single isomer, unassigned) [10a(R), Methyl (R) or (S) 2-amino-2-(4'-imidazolinyl-amino-phenilacetate] showed an EEG recovery time in the assay with rat (cerebral ischemia) of 62 ± 8 s.
Regarding `CN=C(N)NCCC[C@@H](N)C(=O)OC` [2b(R), (R)-N^G -methyl-arginine methylester], in the assay on rat (cardiac ischemia), the “% effects (with respect to controls in the same situation) on death-rate” value is 10%, the “% effects (with respect to controls in the same situation) on fibrillations” value was 50% and the “% effects (with respect to controls in the same situation) on tachycardia V.” value is reported as 60%.
Compound `COC(=O)[C@H](N)CCNNC(=N)N` [4a(R), methyl-(R)-2-amino-4-guanidylamino-butyrrate] displayed an EEG recovery time with rat (cerebral ischemia) of 58 ± 7 s.
On the same count and under the same terms, to `COC(=O)[C@H](N)[C@H]1CC[C@@H](NC(=N)N)CC1` [7a(R), Methyl (R) (1',4' cis or trans)-2-amino-2-(4'-guanidinocyclohexyl)-acetate] belongs 49 ± 6 s.
Same read-out and setting: to `COC(=O)[C@@H](N)[C@H]1CC[C@@H](NC(=N)N)CC1` [7a(S), Methyl (S) (1',4' cis or trans)-2-amino-2-(4'-guanidinocyclohexyl)-acetate] belongs 43 ± 5 s; to `COC(=O)[C@H](N)CCCNC(=N)N` [D.A.M., Darginine methylester, reference compound], 45 ± 6 s; to `COC(=O)[C@@H](N)CCCNC(=N)N` [L.A.M., Larginine methylester, reference compound], 61 ± 8 s.
